Measurements as given in PubChem BioAssay (NCI).
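Method: 48-hour compound exposure of cells in 96-well plates, five concentrations, linear interpolation of endpoints. GI50 marks 50% less growth. TGI: concentration producing complete growth inhibition.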

How the values were obtained:
Test in all cases: NCI anticancer screen, dose series, 48 h
SW-620 colon = test system: SW-620 colon
HCT-116 colon = test system: HCT-116 colon
NCI-H522 lung = test system: NCI-H522 lung
LOX IMVI melanoma = test system: LOX IMVI melanoma
RPMI-8226 leukemia = test system: RPMI-8226 leukemia
SK-MEL-2 melanoma = test system: SK-MEL-2 melanoma
SK-MEL-28 melanoma = test system: SK-MEL-28 melanoma
MCF7 breast = test system: MCF7 breast
NCI/ADR-RES ovarian = test system: NCI/ADR-RES ovarian
MDA-MB-435 = test system: MDA-MB-435

Structure (SMILES)	TGI (SW-620 colon)	TGI (HCT-116 colon)	TGI (NCI-H522 lung)	TGI (LOX IMVI melanoma)	TGI (RPMI-8226 leukemia)	TGI (SK-MEL-2 melanoma)	TGI (SK-MEL-28 melanoma)	GI50 (SW-620 colon)	GI50 (HCT-116 colon)	GI50 (MCF7 breast)	TGI (MCF7 breast)	GI50 (NCI-H522 lung)	GI50 (LOX IMVI melanoma)	GI50 (RPMI-8226 leukemia)	GI50 (NCI/ADR-RES ovarian)	TGI (NCI/ADR-RES ovarian)	GI50 (SK-MEL-28 melanoma)	GI50 (MDA-MB-435)	TGI (MDA-MB-435)	GI50 (SK-MEL-2 melanoma)
NN=C1/C(=C\c2ccccc2)CCC/C1=C/c1ccccc1	> 100 µM	> 100 µM	36.1 µM	54.3 µM	38 µM	> 100 µM	> 100 µM	–	–	–	–	–	–	–	–	–	–	–	–	–
COc1ccc(/C=C\c2cc(OC)c(OC)c(OC)c2)cc1NC(=O)/C=C/c1cc(OC)c(OC)c(OC)c1	> 100 µM	> 100 µM	> 100 µM	> 100 µM	> 100 µM	–	> 100 µM	5.2 µM	3.83 µM	2.92 µM	> 100 µM	2.51 µM	4.9 µM	2.9 µM	2.1 µM	> 100 µM	3.42 µM	–	–	–
COc1ccc(N2C(=O)[C@@H]3[C@@H]4CC(C)CC[C@@H]4c4c([nH]c5ccccc45)[C@@H]3C2=O)cc1 (some centres undefined)	47.7 µM	20 µM	> 55 µM	> 87.6 µM	–	28.5 µM	> 100 µM	–	–	–	–	–	–	–	–	–	–	–	–	–
COc1cccc(NC(=O)/C(CS(=O)(=O)CCC(C(C)=O)C(C)=O)=N\NC(C)(C)C)c1	> 100 µM	> 100 µM	> 100 µM	> 100 µM	> 100 µM	> 100 µM	> 100 µM	–	–	–	–	–	–	–	–	–	–	–	–	–
C=C(C)[C@@H]1CC[C@]2(C(=O)O)CC[C@]3(C)[C@H](CC[C@@H]4[C@@]5(C)CCC(N)C(C)(C)[C@@H]5CC[C@]43C)[C@@H]12 (some centres undefined)	–	–	–	–	5.21 µM	3.69 µM	–	–	–	–	–	–	–	2.04 µM	–	–	–	1.75 µM	3.32 µM	1.95 µM
COC1=CC(=O)C2(C=C1OC)OC[C@H]1Oc3c(ccc4c3C=CC(C)(C)O4)C(=O)[C@H]12 (some centres undefined)	> 100 µM	> 100 µM	51.5 µM	> 100 µM	49.3 µM	> 100 µM	> 100 µM	–	–	–	–	–	–	–	–	–	–	–	–	–
O=[N+]([O-])c1ccc(N=P(c2ccccc2)(c2ccccc2)c2ccccc2)n2nnnc12	> 100 µM	–	> 100 µM	> 100 µM	> 100 µM	> 100 µM	> 100 µM	–	–	–	–	–	–	–	–	–	–	–	–	–
O=C(O)CCCCCNCc1cc2cc3c(cc2c2cc(OCc4ccccc4)ccc12)OCO3	3.1 µM	3.48 µM	3.45 µM	3.1 µM	–	4.6 µM	3.33 µM	1.5 µM	1.58 µM	1.68 µM	3.21 µM	1.76 µM	1.62 µM	–	2.88 µM	11.1 µM	1.78 µM	1.78 µM	3.3 µM	2.22 µM
COC(=O)CC(=O)OC1C[C@@H]2CCC3C(C)(C)CCC[C@]3(C)C23CC[C@@]1(C)C3 (some centres undefined)	32.1 µM	31.4 µM	25.7 µM	32.3 µM	> 100 µM	–	38.8 µM	–	–	–	–	–	–	–	–	–	–	–	–	–
CC1=Nc2ccccc2S/C1=C1/C=NC(=NC#N)N=C1C(=O)Nc1cccc(Cl)c1	> 100 µM	> 100 µM	> 100 µM	> 100 µM	> 100 µM	> 100 µM	> 100 µM	–	–	–	–	–	–	–	–	–	–	–	–	–
CC(=O)OC1(C(C)=O)CC2(c3ccccc3)OC1(c1ccccc1)c1ccccc12 (centres undefined)	> 100 µM	> 100 µM	29.8 µM	> 100 µM	96.8 µM	83.2 µM	> 100 µM	–	–	–	–	–	–	–	–	–	–	–	–	–
CC(=O)[CH-]C(=O)c1ccccc1.CC(=O)[CH-]C(=O)c1ccccc1.Cl.[O-]CCc1ccccn1.[O-]CCc1ccccn1.[Ti+4]	> 100 µM	55.6 µM	70.6 µM	> 100 µM	58.4 µM	38.9 µM	55.1 µM	29.5 µM	18.9 µM	–	–	27.8 µM	25.6 µM	15.8 µM	–	–	20.6 µM	–	–	19.2 µM
CC/C(=C/c1ccc(OC)cc1)[N+](=O)[O-]	3.85 µM	3.1 µM	3.06 µM	2.98 µM	5.31 µM	4.62 µM	3.44 µM	1.93 µM	1.61 µM	–	–	1.56 µM	1.47 µM	1.76 µM	3.13 µM	11.5 µM	1.68 µM	1.68 µM	3.6 µM	2.02 µM
CN1C/C(=C\c2ccccc2)C2=NN(C(N)=S)[C@H](c3ccccc3)[C@@H]2C1	> 100 µM	> 100 µM	> 100 µM	> 100 µM	–	> 100 µM	> 100 µM	–	–	–	–	–	–	–	–	–	–	–	–	–
CN(N=O)c1ccc(/C=C/c2ccnc3ccccc23)cc1	> 100 µM	> 100 µM	> 100 µM	> 100 µM	–	> 100 µM	> 100 µM	–	–	–	> 100 µM	–	–	–	–	> 100 µM	–	–	> 100 µM	–
CSCSCC(CO)NC(=O)/C=C/c1c(C)[nH]c(=O)[nH]c1=O (centres undefined)	> 100 µM	> 100 µM	–	> 100 µM	> 100 µM	> 100 µM	> 100 µM	–	–	–	–	–	–	–	–	–	–	–	–	–
O=C(CC1(O)C(=O)Nc2ccccc21)c1cccc(O)c1 (centres undefined)	> 100 µM	> 100 µM	> 100 µM	> 100 µM	> 100 µM	> 100 µM	> 100 µM	–	–	–	–	–	–	–	–	–	–	–	–	–
O=C1N(c2ccc(Cl)cc2)C(=O)C2(SC=NN2Cc2ccccc2)N1c1ccc(Cl)cc1 (centres undefined)	> 100 µM	> 100 µM	> 100 µM	> 100 µM	> 100 µM	–	> 100 µM	–	–	–	–	–	–	–	–	–	–	–	–	–
CCCC(O)c1ccc2[nH]c3c(C)cc([N+](=O)[O-])c(C)c3c2c1 (centres undefined)	> 100 µM	> 100 µM	> 100 µM	> 100 µM	> 100 µM	> 100 µM	> 100 µM	–	–	–	–	–	–	–	–	–	–	–	–	–
NP1(Oc2ccc(F)cc2)=NP(N)(Oc2ccc(F)cc2)=NP(Oc2ccc(F)cc2)(Oc2ccc(F)cc2)=N1 (centres undefined)	24.8 µM	15.7 µM	–	19.7 µM	18.3 µM	–	25.2 µM	–	–	–	10.9 µM	–	–	–	–	18.4 µM	–	–	19.3 µM	–
COc1cc(OC)c(/C=C/S(=O)(=O)Cc2ccc(OC)c(N)n2)c(OC)c1	> 100 µM	> 100 µM	–	> 100 µM	> 85.9 µM	> 100 µM	> 100 µM	< 0.01 µM	< 0.01 µM	< 0.01 µM	> 100 µM	< 0.01 µM	< 0.01 µM	< 0.0172 µM	–	–	–	< 0.01 µM	< 0.01 µM	–
